Here are results for 25 molecules from patent US20080161232A1, “C5a Receptor Antagonist” (JERINI AG, priority 2005, published 2008).

Starred links: 1 amine or outer side, 2 acyl side, 3 side chain; linkers in the order of their positions; H or OH if unused. Positions of bridges follow the written chain, without caps; N, C: chain ends. Non-standard residues stand in square brackets, D forms with d. Residues, ends and D or L forms follow the SMILES beside them. ξ: configuration not given here. *: point of attachment. Ala(1-amidino-4-piperidyl) = N=C(N)N1CCC(C[C@H](N)C(=O)O)CC1; Phe(3,4,5-F3) = N[C@@H](Cc1cc(F)c(F)c(F)c1)C(=O)O; Phe(3,4-Cl2) = N[C@@H](Cc1ccc(Cl)c(Cl)c1)C(=O)O; Propanoyl(3,3-Ph2) = O=C(CC(c1ccccc1)c1ccccc1)*; ξTrp(5-Me) = Cc1ccc2[nH]cc(CC(N)C(=O)O)c2c1; dβ3hPhg = O=C(C[C@H](N[*:1])c1ccccc1)[*:2]; Phe(3-Cl) = N[C@@H](Cc1cccc(Cl)c1)C(=O)O; Phe(2-Cl) = N[C@@H](Cc1ccccc1Cl)C(=O)O; Phe(4-F) = N[C@@H](Cc1ccc(F)cc1)C(=O)O; dPhe(2-Me) = Cc1ccccc1C[C@@H](N)C(=O)O; 1Nal = N[C@@H](Cc1cccc2ccccc12)C(=O)O; Bta = N[C@@H](Cc1csc2ccccc12)C(=O)O; Hyp = O=C(O)[C@@H]1C[C@@H](O)CN1; NMeF = CN[C@@H](Cc1ccccc1)C(=O)O; d(hLeu) = CC(C)CC[C@@H](N)C(=O)O; Cha = N[C@@H](CC1CCCCC1)C(=O)O; dCha = N[C@H](CC1CCCCC1)C(=O)O; dNle = CCCC[C@@H](N)C(=O)O; Nle = CCCC[C@H](N)C(=O)O; Orn = NCCC[C@H](N)C(=O)O; Aze = O=C(O)[C@@H]1CCN1; Ms = CS(=O)(=O)*; tBu = CC(C)(C)*

For one test, the target named is T1, human C5aR(CD88) (Homo sapiens, UniProt P21730).
T1 construct: expressed in transfected cells; host or cells: rat basophilic leukemia cells (RBL)
T1 sequence (P21730 1-350): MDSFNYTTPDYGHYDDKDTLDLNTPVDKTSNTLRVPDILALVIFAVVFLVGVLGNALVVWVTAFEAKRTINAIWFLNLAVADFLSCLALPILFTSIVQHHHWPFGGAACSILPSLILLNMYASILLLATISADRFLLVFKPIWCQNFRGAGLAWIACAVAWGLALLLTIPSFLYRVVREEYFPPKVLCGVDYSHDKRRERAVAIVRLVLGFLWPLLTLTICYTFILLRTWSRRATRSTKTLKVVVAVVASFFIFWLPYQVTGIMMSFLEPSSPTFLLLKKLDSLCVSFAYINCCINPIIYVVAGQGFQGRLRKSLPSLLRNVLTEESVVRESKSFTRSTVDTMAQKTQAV
Put plainly: Determination of the IC50 value in an enzyme release assay (functional assay, antagonistic activity). Format: cell-based. The following applies: antagonistic activity; IC50 group in enzyme release assay, RBL cells expressing human C5aR(CD88); read-out: activity (group).
Turning to `NCCC[C@H](NC(=O)CC(c1ccccc1)c1ccccc1)C(=O)N1CCC[C@H]1C(=O)N[C@H](CC1CCCCC1)C(=O)N[C@@H](Cc1c[nH]c2ccccc12)C(=O)N[C@@H](Cc1ccccc1)C(N)=O` [Compound 70, Ph2-CH—CH2—CO-Orn-Pro-cha-Trp-Phe-NH2] ({Propanoyl(3,3-Ph2)}-[Orn]P[dCha]WF-NH2), the IC50 was 200 to 2000 nM. Take `CCCC[C@@H]1NC(=O)[C@H](Cc2ccccc2Cl)NC(=O)[C@@H](CCC(C)C)NC(=O)[C@H](CO)NC(=O)[C@@H](NC(=O)[C@@H](N)Cc2ccccc2)CCCNC1=O` [Compound 386, H-Phe-[Orn-Ser-hle-Ocf-Nle]] (H-F[Orn]S[d(hLeu)][Phe(2-Cl)][Nle]; lactam 2-C): the IC50 was in the range of 50 to 200 nM. `CCCC[C@@H]1NC(=O)[C@H](Cc2csc3ccccc23)NC(=O)[C@@H](CCC(C)C)NC(=O)[C@@H]2CCCN2C(=O)[C@@H](NC(=O)[C@H](Cc2ccccc2)NC(C)=O)CCCNC1=O` [Compound 196, Ac-Phe-[Orn-Pro-hle-Bta-Nle]] (Ac-F[Orn]P[d(hLeu)][Bta][Nle]; lactam 2-C): the IC50 is 50 to 200 nM. On to `CC(=O)N[C@@H](Cc1ccccc1)C(=O)N[C@H]1CSSC[C@@H](C(N)=O)NC(=O)[C@H](Cc2ccccc2)NC(=O)[C@H](Cc2csc3ccccc23)NC(=O)[C@@H](CC2CCCCC2)NC(=O)[C@@H]2CCCN2C1=O` [Compound 172, Ac-Phe-[Cys-Pro-cha-Bta-Phe-Cys]-NH2] (Ac-FCP[dCha][Bta]FC-NH2; disulfide 2-7), for which the IC50 is 50 to 200 nM.

Consider `CC(=O)N[C@@H](Cc1ccccc1)C(=O)N[C@@H](CO)C(=O)N1CCC[C@H]1C(=O)N[C@H](CC1CCCCC1)C(=O)N[C@@H](Cc1c[nH]c2ccccc12)C(=O)N[C@@H](Cc1ccccc1)C(N)=O` [Compound 90, Ac-Phe-Ser-Pro-cha-Trp-Phe-NH2] (Ac-FSP[dCha]WF-NH2), for which the IC50 fell in the range of 200 to 2000 nM. As for `CC(=O)N[C@@H](Cc1ccccc1)C(=O)N[C@H]1CCCNC(=O)[C@H](Cc2ccccc2)NC(=O)[C@H](Cc2csc3ccccc23)NC(=O)[C@@H](CCC(C)C)NC(=O)[C@@H]2C[C@@H](O)CN2C1=O` [Compound 177, Ac-Phe-[Orn-Hyp-hle-Bta-Phe]] (Ac-F[Orn][Hyp][d(hLeu)][Bta]F; lactam 2-C), the IC50 was 50 to 200 nM. Still for that read-out and setting: to `CC(=O)N[C@@H](Cc1ccccc1)C(=O)N[C@@H](CCCN)C(=O)N1CCC[C@H]1C(=O)N[C@H](CCC(C)C)C(=O)N[C@@H](Cc1c[nH]c2ccccc12)C(=O)N[C@@H](Cc1ccccc1)C(N)=O` [Compound 306, Ac-Phe-Orn-Pro-hle-Trp-Phe-NH2] (Ac-F[Orn]P[d(hLeu)]WF-NH2) belongs 50 to 200 nM.

On to `CN[C@@H](Cc1ccccc1)C(=O)N[C@@H](CCCN)C(=O)N1CCC[C@H]1C(=O)N[C@H](CC1CCCCC1)C(=O)N[C@@H](Cc1c[nH]c2ccccc12)C(=O)N[C@@H](Cc1ccccc1)C(N)=O` [Compound 75, H—Me-Phe-Orn-Pro-cha-Trp-Phe-NH2] (H-[NMeF][Orn]P[dCha]WF-NH2), for which the IC50 lay within 50 to 200 nM. The same measure, in the same setting: with `CCCC[C@@H]1NC(=O)[C@H](Cc2ccc(F)cc2)NC(=O)[C@@H](CSC(C)(C)C)NC(=O)[C@@H]2C[C@@H](O)CN2C(=O)[C@@H](NC(=O)[C@@H](N)Cc2ccccc2)CCCNC1=O` [Compound 358, H-Phe-[Orn-Hyp-ctb-Pff-Nle]] (H-F[Orn][Hyp][dC](tBu)[Phe(4-F)][Nle]; lactam 2-C) the figure was 50 to 200 nM; with `CC(=O)N[C@@H](Cc1ccccc1)C(=O)N[C@@H](CCCNC(=N)N)C(=O)N1CCC[C@H]1C(=O)N[C@H](CCC(C)C)C(=O)N[C@@H](Cc1cccc(Cl)c1)C(=O)N[C@@H](Cc1ccccc1)C(N)=O` [Compound 208, Ac-Phe-Arg-Pro-hle-Mcf-Phe-NH2] (Ac-FRP[d(hLeu)][Phe(3-Cl)]F-NH2), 50 to 200 nM; with `CC(=O)N[C@@H](Cc1ccccc1)C(=O)N[C@@H](CCCN)C(=O)N[C@@H](CO)C(=O)N[C@H](CC1CCCCC1)C(=O)N[C@@H](Cc1c[nH]c2ccccc12)C(=O)N[C@@H](Cc1ccccc1)C(=O)O` [Compound 117, Ac-Phe-Orn-Ser-cha-Trp-Phe-OH] (Ac-F[Orn]S[dCha]WF-OH), 200 to 2000 nM. As to `CC(=O)N[C@@H](Cc1ccccc1)C(=O)N[C@@H](CCCN)C(=O)N1CCC[C@H]1C(=O)N[C@H](CC1CCCCC1)C(=O)N[C@@H](Cc1cccc2ccccc12)C(=O)N[C@@H](Cc1ccccc1)C(N)=O` [Compound 248, Ac-Phe-Orn-Pro-cha-1Ni-Phe-NH2] (Ac-F[Orn]P[dCha][1Nal]F-NH2), the IC50 was in the range of 50 to 200 nM. Take `CCCC[C@@H]1NC(=O)[C@H](Cc2ccc(Cl)c(Cl)c2)NC(=O)[C@@H](CCC(C)C)NC(=O)[C@H](CO)NC(=O)[C@@H](NC(=O)[C@@H](N)Cc2ccccc2)CCCNC1=O` [Compound 384, H-Phe-[Orn-Ser-hle-Eaa-Nle]] (H-F[Orn]S[d(hLeu)][Phe(3,4-Cl2)][Nle]; lactam 2-C): the IC50 was 50 to 200 nM. The same measure, in the same setting: to `CC(=O)N[C@@H](Cc1ccccc1)C(=O)N[C@@H](CCCN)C(=O)N1CCC[C@H]1C(=O)N[C@H](Cc1ccccc1C)C(=O)N[C@@H](Cc1csc2ccccc12)C(=O)N[C@@H](Cc1ccccc1)C(N)=O` [Compound 308, Ac-Phe-Orn-Pro-omf-Bta-Phe-NH2] (Ac-F[Orn]P[dPhe(2-Me)][Bta]F-NH2) belongs 50 to 200 nM; to `CC(=O)N1C[C@H](O)C[C@H]1C(=O)N[C@@H](Cc1ccccc1)C(=O)N[C@@H](CCCN)C(=O)N1CC[C@H]1C(=O)N[C@H](CC1CCCCC1)C(=O)N[C@@H](Cc1csc2ccccc12)C(=O)N[C@@H](Cc1ccccc1)C(N)=O` [Compound 159, Ac-Hyp-Phe-Orn-Aze-cha-Bta-Phe-NH2] (Ac-[Hyp]F[Orn][Aze][dCha][Bta]F-NH2), 20 to 50 nM; to `CCCC[C@H]1NC(=O)[C@H](Cc2c[nH]c3ccccc23)NC(=O)[C@@H](CC2CCCCC2)NC(=O)[C@@H]2CCCN2C(=O)[C@@H](NC(=O)[C@H](Cc2ccccc2)NC(C)=O)CCCNC1=O` [Compound 194, Ac-Phe-[Orn-Pro-cha-Trp-nle]] (Ac-F[Orn]P[dCha]W[dNle]; lactam 2-C), 50 to 200 nM.

For the molecule `CC(=O)N[C@@H](Cc1ccccc1)C(=O)N[C@@H](CCCN)C(=O)N1CCC[C@H]1C(=O)N[C@H](CCC(C)C)C(=O)NC(Cc1c[nH]c2ccc(C)cc12)C(=O)N[C@@H](Cc1ccccc1)C(N)=O` (stereo partly drawn) [Compound 285, Ac-Phe-Orn-Pro-hle-Egc-Phe-NH2] (Ac-F[Orn]P[d(hLeu)][ξTrp(5-Me)]F-NH2), the IC50 was in the range of 50 to 200 nM. As to `CC(=O)N[C@@H](Cc1ccccc1)C(=O)N[C@@H](CCCNC(=N)N)C(=O)N1CCC[C@H]1C(=O)N[C@H](CCC(C)C)C(=O)N[C@@H](Cc1csc2ccccc12)C(=O)N[C@@H](Cc1ccccc1)C(N)=O` [Compound 207, Ac-Phe-Arg-Pro-hle-Bta-Phe-NH2] (Ac-FRP[d(hLeu)][Bta]F-NH2), the IC50 is 50 to 200 nM. With `CS(=O)(=O)N[C@@H](Cc1ccccc1)C(=O)N[C@@H](CCCN)C(=O)N1CC[C@H]1C(=O)N[C@H](CC1CCCCC1)C(=O)N[C@@H](Cc1csc2ccccc12)C(=O)N[C@@H](Cc1ccccc1)C(N)=O` [Compound 96, CH3—SO2-Phe-Orn-Aze-cha-Bta-Phe-NH2] (Ms-F[Orn][Aze][dCha][Bta]F-NH2), the IC50 lay within 20 to 50 nM. `CC(=O)N[C@@H](Cc1ccccc1)C(=O)N[C@H]1CCCNC(=O)[C@H](CC2CCN(C(=N)N)CC2)NC(=O)[C@H](Cc2c[nH]c3ccccc23)NC(=O)[C@@H](CC2CCCCC2)NC(=O)[C@@H]2CCCN2C1=O` [compound 30] (Ac-F[Orn]P[dCha]W[Ala(1-amidino-4-piperidyl)]; lactam 2-C): the IC50 was more than 2000 nM. In the case of `CC(=O)N[C@@H](Cc1ccccc1)C(=O)N[C@@H](CCCN)C(=O)N1C[C@H](O)C[C@H]1C(=O)N[C@H](CCC(C)C)C(=O)N[C@@H](Cc1ccc(F)cc1)C(=O)N[C@@H](Cc1ccccc1)C(N)=O` [Compound 245, Ac-Phe-Orn-Hyp-hle-Pff-Phe-NH2] (Ac-F[Orn][Hyp][d(hLeu)][Phe(4-F)]F-NH2), the IC50 was in the range of 50 to 200 nM.

With `CC(=O)N[C@@H](Cc1ccccc1)C(=O)N[C@@H](CCCN)C(=O)N1CCC[C@H]1C(=O)N[C@H](CCC(C)C)C(=O)N[C@@H](Cc1cc(F)c(F)c(F)c1)C(=O)N[C@@H](Cc1ccccc1)C(N)=O` [Compound 305, Ac-Phe-Orn-Pro-hle-Tff-Phe-NH2] (Ac-F[Orn]P[d(hLeu)][Phe(3,4,5-F3)]F-NH2), the IC50 lay in the range of 50 to 200 nM. As for `N[C@@H](CC(=O)N[C@@H](Cc1ccccc1)C(=O)N[C@H]1CCCNC(=O)[C@H](Cc2ccccc2)NC(=O)[C@H](Cc2c[nH]c3ccccc23)NC(=O)[C@@H](CC2CCCCC2)NC(=O)[C@@H]2C[C@@H](O)CN2C1=O)c1ccccc1` [Compound 318, Eby-Phe-[Orn-Hyp-cha-Trp-Phe]] (dβ3hPhg-F[Orn][Hyp][dCha]WF; lactam 2-C), the IC50 is 50 to 200 nM. As to `CC(=O)N[C@@H](Cc1ccccc1)C(=O)N[C@@H](CCCN)C(=O)N1CC[C@H]1C(=O)N[C@H](CC1CCCCC1)C(=O)N[C@@H](Cc1ccc(F)cc1)C(=O)N[C@@H](Cc1ccccc1)C(N)=O` [Compound 99, Ac-Phe-Orn-Aze-cha-Pff-Phe-NH2] (Ac-F[Orn][Aze][dCha][Phe(4-F)]F-NH2), the IC50 fell in the range of 50 to 200 nM.

The same test, now with this note: functional assay as used in this application, values in text; read-out: IC50.
For the molecule `CC(=O)N[C@@H](Cc1ccccc1)C(=O)N[C@@H](CCCCN)C(=O)N[C@@H](C)C(=O)N[C@@H](CC1CCCCC1)C(=O)N[C@@H](C)C(=O)N[C@@H](CC(C)C)C(=O)N[C@H](C)C(=O)N[C@@H](Cc1ccc(O)cc1)C(=O)O` [Ac-Phe-Lys-Ala-Cha-Ala-Leu-ala-Tyr-OH, reference compound] (Ac-FKA[Cha]AL[dA]Y-OH), the IC50 was found to be 1300 nM.
